Each structure is given as a SMILES string. Structures can show the parent of a compound that is named as a salt.

The record followed here is patent US6046218A, “Pyridine derivative and medicament containing the same as an effective ingredient” (SS Pharmaceutical Co., Ltd., priority 1996, dated 2000).

The subject of assay [1] is IL-5 production. The assay is described as follows: Test 3: inhibition of IL-5 production in human PBMC stimulated with ConA. Type of assay: cell-based. The settings on record: 10^-6 M, 10 μg/ml ConA, 48 hours, read-out: Inhibition rate of IL-5 production. The gist of the method: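 Human PBMC from a normal volunteer, 1×10^6 cells/ml in AIM-V, stimulated with 10 μg/ml ConA alongside compound and incubated 48 h at 37 °C, 5% CO2. Supernatant IL-5 quantified by EIA; inhibition rate calculated from a formula.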

Assay [2] concerns IL-4 production. In words: Test 2: inhibition of IL-4 production in human T-cell strain ATL-16T(-) stimulated with PMA (Bio Source EIA). The assay is classed as cell-based. The settings on record: ATL-16T(-) 5×10^5 cells/0.5 ml/well, 20 nM PMA, 48 hours, read-out: Inhibition rate of IL-4 production; for inhibition at 10 µM: 10^-5 M; for inhibition at 1 µM: 10^-6 M; for inhibition at 0.1 µM: 10^-7 M; for inhibition at 0.01 µM: 10^-8 M. The procedure:
Test 2: Test on the inhibition of IL-4 production
Into individual wells of a 48-well microplate, the human T-cell strain ATL-16T(-) was poured at a concentration of 5×10^5 cells/0.5 ml/well (n=3), followed by the addition of a stimulator (20 nM of PMA) and a medicament at the same time. The resulting mixture was incubated in 5% CO2 at 37° C. for 48 hours. After incubation, 50 μl of the supernatant were collected and subjected to measurement by a human IL-4 EIA kit (BIO SOURCE, INC.). The inhibition rate was calculated according to the following formula. [formula]

Assay [3] concerns IgM production. In words: Test 4 (comparison): inhibition of IgM production. The assay is classed as in vivo, Balb/c mouse. The settings on record: Mus musculus, po; 100 mg/kg orally once a day, Day 1 to Day 10; spleen cells, DNP-BSA 5 μg/ml, 24 hours; read-out: Inhibition rate of IgM production. The procedure:
(§1) Test 4: Test on the inhibition of IgE production
(§2) To a Balb/c mouse, the DNP-labeled ascaris antigen (5 μg) and Alum (1 mg) were intraperitoneally administered on Day 1 and Day 6 to sensitize the mouse with the antibody. From Day 1 to Day 10, a medicament was orally administered at a dose of 100 mg/kg once a day. On Day 11, the mouse was subjected to splenectomy and the spleen so obtained was untangled into its cells. To 5×10^7 cells/ml of the spleen cells so obtained, DNP-BSA (5 μg/ml) was added, followed by incubation at 37° C. for 24 hours. After incubation, 100 μl of the supernatant were collected and subjected to the measurement an IgE measuring kit (Yamasa Co., Ltd.). In order to determine IgG1, IgG2a and IgM, the absorbance of the incubated supernatant was measured by the EIA method and provided for comparison. The inhibition rate of IgE production was calculated according to the below-described formula. Inhibition rates of the IgG1, IgG2a and IgM production were similarly calculated, respectively. [formula]

Assay [4] relates to IgE production. The assay is described as follows: Test 4: inhibition of IgE production by spleen cells of orally treated sensitized mice. Type of assay: in vivo, Balb/c mouse. The settings on record: Mus musculus, po, 100 mg/kg orally once a day, Day 1 to Day 10, DNP-BSA 5 μg/ml, 24 hours, read-out: Inhibition rate of IgE production. As for the experimental part:
as §1, §2

The test system of assay [5] is IgG1 production. In words: Test 4 (comparison): inhibition of IgG1 production. Type of assay: in vivo, Balb/c mouse. The following applies: Mus musculus, po; 100 mg/kg orally once a day, Day 1 to Day 10; spleen cells, DNP-BSA 5 μg/ml, 24 hours; read-out: Inhibition rate of IgG1 production. As for the experimental part:
as §1, §2

Assay [6] concerns IgG2a production. The assay is described as follows: Test 4 (comparison): inhibition of IgG2a production. The assay is classed as in vivo, Balb/c mouse. The following applies: Mus musculus, po; 100 mg/kg orally once a day, Day 1 to Day 10; spleen cells, DNP-BSA 5 μg/ml, 24 hours; read-out: Inhibition rate of IgG2a production. As for the experimental part:
as §1, §2

For the molecule `COc1cnc(/C=C/C(=O)c2ccc(Cl)cc2Cl)cc1OC` [Ex. 53, 4,5-Dimethoxy-2-[3-(2,4-dichlorophenyl)-3-oxo-1-propenyl]pyridine], in assay [1], the inhibition at 1 µM turned out to be 75%. In assay [2], the inhibition at 10 µM stood at 105%, the inhibition at 1 µM worked out at 103%, the inhibition at 0.1 µM came to 16.7% and the inhibition at 0.01 µM was 23.1%.
Regarding `COC(=O)c1ccc(COc2cc(/C=C/C(=O)c3ccccc3OC)ncc2OC)cc1` [Ex. 99], the inhibition at 100 mg/kg was 8.5% in assay [3], 34.8% in assay [4], 6.1% in assay [5] and 2.7% in assay [6]. In addition, in assay [1], the inhibition at 1 µM came out at 80.3%.
With `COc1cnc(/C=C/C(=O)c2c(OC)cccc2OC)cc1O` [Ex. 56, 4-Hydroxy-5-methoxy-2-[3-(2,6-dimethoxyphenyl)-3-oxo-1-propenyl]pyridine], the inhibition at 1 µM in assay [1] worked out at 79.8%. For the same molecule, in assay [2], the inhibition at 10 µM came to 101%, the inhibition at 1 µM was found to be 53.7%, the inhibition at 0.1 µM stood at 47.1% and the inhibition at 0.01 µM was determined as 42.1%.
For `COc1cnc(/C=C/C(=O)C2CCCCC2)cc1OC` [Ex. 73, 2-(3-Cyclohexyl-3-oxo-1-propenyl)-4,5-dimethoxypyridine hydrochloride], the inhibition at 1 µM in assay [1] was found to be 82.3%. In addition, in assay [2], the inhibition at 10 µM amounted to 86.9%, the inhibition at 1 µM is 51.3%, the inhibition at 0.1 µM came out at 21.4% and the inhibition at 0.01 µM turned out to be 11.9%.
In the same order, the values of `CCOC(=O)CCCOc1cc(/C=C/C(=O)c2cccnc2)ncc1OC` [Ex. 71, Ethyl 4-[5-methoxy-2-(3-oxo-3-(3-pyridyl)-1-propenyl)-4-pyridyloxy]butanoate dih ydrochloride] are 93.3%, 81.2%, 69.1%, 68.6% and 61.9%.
For `CCOC(=O)CCCCCOc1cc(/C=C/C(=O)c2ccsc2)ncc1OC` [Ex. 100, Ethyl 6-[5-methoxy-2-(3-oxo-3-(3-thienyl)-1-propenyl)-4-pyridyloxy]hexanoate hyd rochloride], the inhibition at 100 mg/kg was -9% in assay [3], 23.9% in assay [4], -4% in assay [5] and -5.1% in assay [6]. The inhibition at 1 µM in assay [1] is 82.6%.
On to `COc1cnc(/C=C/C(=O)c2ccc([N+](=O)[O-])cc2)cc1OC` [Ex. 52, 4,5-Dimethoxy-2-[3-(4-nitrophenyl)-3-oxo-1-propenyl]pyridine], for which the inhibition at 1 µM in assay [1] was 64.2%. Besides, in assay [2], the inhibition at 10 µM was 76.1%, the inhibition at 1 µM is 48.9%, the inhibition at 0.1 µM was found to be 25.6% and the inhibition at 0.01 µM worked out at 11.6%.
In the same order, the values of `CCOC(=O)CCCOc1cc(/C=C/C(=O)c2ccncc2)ncc1OC` [Ex. 72, Ethyl 4-[5-methoxy-2-(3-oxo-3-(4-pyridyl)-1-propenyl)-4-pyridyloxy]butanoate dih ydrochloride] are 84.1%, 75.4%, 73.7%, 69.1% and 68.8%.
In the same order, the values of `COc1cnc(/C=C/C(=O)c2c(Cl)cccc2Cl)cc1OC` [Ex. 54, 4,5-Dimethoxy-2-[3-(2,6-dichlorophenyl)-3-oxo-1-propenyl]pyridine] are 93.3%, 101%, 98.7%, 24.2% and 6.1%.
Take `CCOC(=O)CCCCOc1cc(/C=C/C(=O)C2CCCCC2)ncc1OC` [Ex. 78, Ethyl 5-[2-(3-cyclohexyl-3-oxo-1-propenyl)-5-methoxy-4-pyridyloxy]pentanoate hydrochloride]: the inhibition at 1 µM in assay [1] amounted to 63.1%. Further, in assay [2], the inhibition at 10 µM was 71.1%, the inhibition at 1 µM came out at 70.8%, the inhibition at 0.1 µM came to 68.5% and the inhibition at 0.01 µM turned out to be 68.2%.
`CCOC(=O)CCCCCOc1cc(/C=C/C(=O)c2c(OC)cccc2OC)ncc1OC` [Ex. 85, Ethyl 6-[5-methoxy-2-(3-(2,6-dimethoxyphenyl)-3-oxo-1-propenyl)-4-pyridyloxy]hexanoate hydrochloride]: the inhibition at 1 µM in assay [1] came to 75.7%. Moreover, in assay [2], the inhibition at 10 µM was 86.3%, the inhibition at 1 µM was determined as 77.4%, the inhibition at 0.1 µM was found to be 77.1% and the inhibition at 0.01 µM was determined as 73.9%.
Take `COc1cnc(/C=C/C(=O)c2ccccc2[N+](=O)[O-])cc1OC` [Ex. 51, 4,5-Dimethoxy-2-[3-(2-nitrophenyl)-3-oxo-1-propenyl]pyridine]: the inhibition at 1 µM in assay [1] was 93.6%. Besides, in assay [2], the inhibition at 10 µM was found to be 102%, the inhibition at 1 µM is 20.5%, the inhibition at 0.1 µM is 30.1% and the inhibition at 0.01 µM is 26.3%.
On to `COc1cnc(/C=C/C(=O)C2CCCCC2)cc1OC1CCCC1` [Ex. 74, 2-(3-Cyclohexyl-3-oxo-1-propenyl)-4-cyclopentyloxy-5-methoxypyridine], for which the inhibition at 1 µM in assay [1] came out at 77.9%. Further, in assay [2], the inhibition at 10 µM is 81.6%, the inhibition at 1 µM came to 32.4%, the inhibition at 0.1 µM amounted to 27.7% and the inhibition at 0.01 µM turned out to be 5.9%.
On to `CCOC(=O)CCCOc1cc(/C=C/C(=O)c2ccccn2)ncc1OC` [Ex. 70, Ethyl 4-[5-methoxy-2-(3-oxo-3-(2-pyridyl)-1-propenyl]-4-pyridyloxy]butanoate dih ydrochloride], for which the inhibition at 1 µM in assay [1] was 81.4%. For the same molecule, in assay [2], the inhibition at 10 µM is 65.7%, the inhibition at 1 µM was determined as 64.3%, the inhibition at 0.1 µM was 64% and the inhibition at 0.01 µM came out at 60%.
On the same counts, the results for `CCOC(=O)CCCOc1cc(/C=C/C(=O)c2ccc(OC)cc2OC)ncc1OC` [Ex. 91, Ethyl 4-[5-methoxy-2-(3-(2,4-dimethoxyphenyl)-3-oxo-1-propenyl)-4-pyridyloxy]butanoate hydrochloride] are 85.8%, 93.4%, 62.3%, 62.2% and 59.8%.
For `CCOC(=O)CCCOc1cc(/C=C/C(=O)C2CCCCC2)ncc1OC` [Ex. 76, Ethyl 4-[2-(3-cyclohexyl-3-oxo-1-propenyl)-5-methoxy-4-pyridyloxy]butanoatehydrochloride], in assay [1], the inhibition at 1 µM worked out at 91.2%. Also, in assay [2], the inhibition at 10 µM is 75.3%, the inhibition at 1 µM amounted to 70.5%, the inhibition at 0.1 µM was determined as 69.1% and the inhibition at 0.01 µM amounted to 67.7%.
`CCOC(=O)CCCCCCCCCCCOc1cc(/C=C/C(=O)c2ccccc2OC)ncc1OC` [Ex. 97, Ethyl 12-[5-methoxy-2-(3-(2-methoxyphenyl)-3-oxo-1-propenyl)-4-pyridyloxy]dodecanoate hydrochloride]: the inhibition at 100 mg/kg is 1.9% in assay [3], 30.5% in assay [4], 5.6% in assay [5] and -9.5% in assay [6]. Besides, in assay [1], the inhibition at 1 µM was determined as 93.9%.
Regarding `CCOC(=O)CCCCOc1cc(/C=C/C(=O)c2ccccc2OC)ncc1OC` [Ex. 95, Ethyl 5-[5-methoxy-2-(3-(2-methoxyphenyl)-3-oxo-1-propenyl)-4-pyridyloxy]pentanoate hydrochloride], the inhibition at 1 µM in assay [1] was found to be 65.6%. In assay [2], the inhibition at 10 µM came out at 105%, the inhibition at 1 µM amounted to 60.9%, the inhibition at 0.1 µM is 59.2% and the inhibition at 0.01 µM is 57.3%.
